Test results reported in PMC5418348, “Identification of a Novel Allosteric Inhibitory Site on Tryptophan Hydroxylase 1 Enabling Unprecedented Selectivity Over all Related Hydroxylases” (Frontiers in Pharmacology, 2017).
Entries after “also recorded” stand apart in the source; their conditions may differ. Read-outs that look alike come from different tables or passages of the source.

Key:
TPH1 = tested on: TPH1; set-up: method as in Liu et al., 2008; conditions: ref Liu et al., 2008; read-out: TPH1 activity IC50 (literature); cited from earlier work
[1] = tested on: BON (human pancreatic carcinoid) cell line; test: BON cell assay of D4-5-HT production from deuterated tryptophan; format: cell-based; conditions: BON cells; for IC50: read-out: IC50 inhibition of D4-5-HT production
Protocol: (§1) 5-HT newly synthesized through TPH activity was assessed both in vitro and in vivo by addition of deuterium labeled substrate (deuterated tryptophan – TRP-d5) and subsequently generated deuterium labeled product (deuterated serotonin – 5HT-d4) (Figure 6A). BON (human pancreatic carcinoid) cell line was a gift from Dr. Courtney M. Townsend (University of Texas, Galveston, TX, USA) and cultured as previously described ([Tran et al., 2004]). Cells were seeded overnight in 96-well plates at 1.2 × 10^5 cells per well in 200 μL growth media containing 1% FBS, and incubated at 37°C, 5% CO2. After 24 h, cell media was exchanged for […] serum-free media. All reagents added to the cells in subsequent steps were diluted in serum-free media. Cells were treated with 25 μL of either compound or DMSO vehicle (1 % v/v) for 15 min at 37°C, 5% CO2 and then treated with 25 μL 196 mM deuterated-tryptophan (Isotec, UK) for a further 2 h at 37°C, 5% CO2. BON cell lysates were then prepared by removal of all media with subsequent addition of […] HTAB. These lysates were further analyzed for D4-5-HT content by LCMS. Cell toxicity was also assessed in BON cells using a standard lactate dehydrogenase (LDH) assay according to instructions.

BON cells = test: LDH cell toxicity assay in BON cells; format: cell-based, human; conditions: Figure 5B
Protocol: as §1

TPH1 (104–394) = target: T1, TPH1 (104–394) (Homo sapiens, UniProt P17752); test: Biacore surface plasma resonance binding / competition experiments; conditions: SPR, previously estimated, data not shown; read-out: KD toward TPH1
T1 construct: His6 (N, cleaved yes); made in house; host or cells: Escherichia coli BL21 Rosetta (DE3)
Protocol: Biosensor experiments were performed on a Biacore T100 instrument (GE Healthcare). Biotinylation and capture of TPH1 was performed by adding a volume of freshly prepared EZ-link solution (dissolved in water) to an aliquot of TPH1(104–394) in a 2:1 molar ratio and incubated on ice. After 30 min of incubation, the reaction was stopped by the addition of 100 mM of Tris pH7.5. Unreacted biotin was removed by passing the solution over a fast desalting column (Thermo scientific #89849, equilibrated with PBS, 0.5 mM TCEP) three times. Biotinylated protein was aliquoted and kept at -80°C until use. Biotinylated TPH1 (104–394) was immobilized at 22°C on a SA chip surface (GE Healthcare) equilibrated with 10 mM Hepes, 150 mM NaCl, 1 mM TCEP, 0.05% Tween20, 5% glycerol, pH7.6. Approximately 3200RU were immobilized using this procedure. A streptavidin surface served as the reference.
Binding experiments were performed at 20°C using 10 mM Hepes, 150 mM NaCl, 1 mM TCEP, 0.05% Tween20, 5% glycerol, pH7.6, 2% DMSO as running buffer. […] Using a flow rate of […], samples were injected for 120 s and dissociation was monitored for 240 s. […]

Human TPH-1 = target: T2, Human TPH-1 (Homo sapiens, UniProt P17752); test: In vitro human TPH-1 enzyme activity assay (fluorescence); format: biochemical; conditions: literature ref Liu et al., 2008
T2 sequence (P17752 1-444): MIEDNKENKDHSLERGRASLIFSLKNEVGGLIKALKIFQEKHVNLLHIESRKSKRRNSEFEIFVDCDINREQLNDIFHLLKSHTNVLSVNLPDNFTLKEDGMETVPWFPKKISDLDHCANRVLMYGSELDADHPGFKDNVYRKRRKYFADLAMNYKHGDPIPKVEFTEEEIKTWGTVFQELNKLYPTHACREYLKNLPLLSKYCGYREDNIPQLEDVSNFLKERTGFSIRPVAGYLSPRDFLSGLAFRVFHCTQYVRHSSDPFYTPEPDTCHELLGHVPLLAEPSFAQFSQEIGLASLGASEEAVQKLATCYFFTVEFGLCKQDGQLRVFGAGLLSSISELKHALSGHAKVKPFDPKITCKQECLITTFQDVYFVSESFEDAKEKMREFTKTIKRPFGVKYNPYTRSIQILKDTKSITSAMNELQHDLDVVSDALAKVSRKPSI
Protocol: Human TPH-1 and Human TPH-2 enzyme assays were carried out at room temperature with atmosphere oxygen in a volume of 25 μL. A base buffer of 40 mM HEPES pH 7.0, 200 mM ammonium sulfate was made and stored at 4°C. On the day of assay, final concentrations of 10 μM iron ammonium sulfate, 0.1 mg mL^-1 BSA, 25 μg mL^-1 catalase, and 0.04% Chaps were added and designated as enzyme buffer. Substrate buffer was made the same way but for the addition of a final concentration of 10 mM DTT. Enzymes were diluted as follows: 1.25x = 12.5 nM TPH1 (Final = 10 nM) or 1.25x = 37.5 nM TPH2 (Final = 30 nM) in enzyme buffer. Substrates were diluted as follows: 5x = 200 μM (6R)-5,6,7,8-Tetrahydrobiopterin dihydrochloride (BH4) (Final = 40 μM) and 5x = 100 μM Tryptophan (Final = 20 μM) in substrate buffer. Compounds were serially diluted 1:1 in DMSO to 50x = 500 μM (Final = 10 μM). Assays were performed in GNF Custom Greiner Black 384-well plates. Compounds were added at 0.5 μL per well. Enzymes were added at 20 μL per well. Compounds and enzymes were pre-incubated 15 min at room temperature. Substrates were added at 5 μL per well to initiate the reaction. The plates were covered and incubated at room temperature: 30 min for TPH1 and 60 min for TPH2. The reactions were quenched with the addition of 25 μL 30% sulfuric acid.

Kd (TPH1 (104–394)) [µM] | Structure (SMILES) | IC50 (TPH1) [µM] | IC50 [1] [µM] | LDH tox (BON cells) [µM] | difference between literature TPH1 IC50 and the values reported here (Human TPH-1) | IC50 inhibition of D4-5-HT production [1] | IC50 ([1]; Figure 5B, 15 min compound then 2 h deuterated tryptophan, n = 3) [µM]
– | Nc1nc(OC(c2ccc(-c3cccc(F)c3)cc2)C(F)(F)F)cc(-c2ccc(C[C@H](N)C(=O)O)cc2)n1 (stereo partly shown) [LP533401] | 0.7 | 12.4 | > 30 | – | – | –
56 | N[C@@H](Cc1c[nH]c2ccccc12)C(=O)O [L-Trp] | – | – | – | – | – | –
– | N[C@@H](Cc1ccc(Cl)cc1)C(=O)O (racemic) [pCPA, p-chlorophenylalanine] | 250 | – | > 30 | approximately 50 fold | could not be established; also recorded: not measurable | > 30
11 | C[C@H](O)[C@H](O)C1=Nc2c(nc(N)[nH]c2=O)NC1 [BH2] | – | – | – | – | – | –
